The values that follow come from patent US20080069896A1, “Antitumor Composition” (Kabushiki Kaisha Sangi, priority 2004, published 2008).

Data set [1] relates to human lung cancer cell Lu65. Put plainly: MTT assay, human lung cancer cell Lu65. Format: cell-based. Here is the method:
(§1) Effect of platinum tetrachloride/hydroxyapatite (PtCl4/HAP) and hexachloroplatinate/hydroxyapatite (H2PtCl6/HAP) against human cancer cells (MTT assay)
(§2) According to “in vitro toxicity test using MTT”, which is an ordinary test method, MTT assay was performed for PtCl4/HAP (particle diameter 0.1 μm or less), and H2PtCl6/HAP (particle diameter 0.1 μm or less) by using 19 types of human cancer cells. PtCl4/HAP and H2PtCl6/HAP were used by adjusting the final dispersion concentration to 1.0% in a dispersion liquid each containing 10% platinum as a theoretical value. For comparison, MTT assay was performed for PtCl4 and CDDP. PtCl4 was dissolved at an adequate dose, and then used after serial dilution with PBS (−). For CDDP, injection liquid from Malco was used.
In general terms: Formazan colour is commonly taken as a measure of viable cells.

The subject of data set [2] is human lung cancer cell Lu99. Put plainly: MTT assay, human lung cancer cell Lu99. It is filed as cell-based. Here is the method:
as §1, §2

The test system of data set [3] is fibroblasts at confluency. Put plainly: Microscopic observation of toxicity effect during resting stage. It is filed as cell-based, rat. From the text:
A male mature rat was deeply anesthetized with ether, and disinfected by wiping carefully its tail with alcohol. The tail end part was cut by several centimeters, and the skin was removed from coccyx. Tendon was attached to the coccyx, and by culturing the same, fibroblasts can be recovered. Coccyx part was further cut finely with a sterilized pair of scissors, and adhered on a sterilized plastic plate with the cut surface down. After resting the plate for a while, DMEM supplemented with 10% FBS was added thereto. In approximately one week, fibroblasts germinated from the coccyx part, and proliferated in the plate. The fibroblasts collected from rat tail end were used for the following experiment.
From the result of Example 7, 2 ppm which is a value of platinum content that kills 50% of fibroblasts in CDDP during resting stage was set as a standard. Then, CDDP, PtCl4/HAP, PtCl4 and HAP dispersion liquids in an amount corresponding to 2 ppm of platinum content, were added to the fibroblasts at confluency in a medium, and cultured for 48 hours.

Setting [4] is: Lu65, platinum compound without hydroxyapatite, for comparison.
The mark [5] stands for this setting: Lu99, platinum compound without hydroxyapatite, for comparison.

Where two headings read alike, the source gives them in different places.

Regarding `[Cl][Pt-2]([Cl])([Cl])[Cl]` [H2PtCl4, tetrachloroplatinate], the entries for the “IC50 of human lung cancer cells by MTT assay” value in data set [1] (setting [4]) and in data set [2] (setting [5]) were 8.8 ppm and 9.1 ppm, respectively. Moreover, in data set [1] (setting [4]), the “Platinum content calculated from IC50 of human lung cancer cell by MTT assay” value (“Platinum content calculated from IC50” for short) is listed as 5.1 ppm.
Take `[Cl][Pt-2]([Cl])([Cl])([Cl])([Cl])[Cl].[H+].[H+]` [H2PtCl6, hexachloroplatinate]: the “IC50 of human lung cancer cells by MTT assay” value is recorded as 11.1 ppm in data set [1] and 7.2 ppm in data set [2]. The “Platinum content calculated from IC50” value is given as 5.3 ppm in data set [1] and 3.4 ppm in data set [2].
In the case of `[Cl][Pt-2]([Cl])([Cl])[Cl].[K+].[K+]` [K2PtCl4, dipotassium platinum tetrachloride], in data set [1] (setting [4]), the “IC50 of human lung cancer cells by MTT assay” value was 58.2 ppm and the “Platinum content calculated from IC50” value is 27.4 ppm. For the same compound, in data set [2] (setting [5]), the “IC50 of human lung cancer cells by MTT assay” value was 12.1 ppm and the “Platinum content calculated from IC50” value is reported as 5.7 ppm.
Taken in the same sequence, the figures for `[Cl][Pt-2]([Cl])([Cl])[Cl].[Na+].[Na+]` [Na2PtCl4, disodium platinum tetrachloride] were 8.8 ppm, 4.5 ppm, 9.2 ppm and 4.7 ppm.
For Hydroxyapatite [HAP], the “Microscopic observation of cell form of cultured fibroblasts” value in data set [3] is recorded as “almost no abnormality was observed”.
The same measure, in the same setting: the value for “platinum tetrachloride/hydroxyapatite [PtCl4/HAP]” was “fibroblasts did not lose their original form”.
